The record followed here is patent publication US11731977B2, “SGC stimulators” (Cyclerion Therapeutics, Inc., priority 2016, dated 2023).

Each structure is given as a SMILES string.

For this assay, the target named is T1, sGC enzyme (Homo sapiens, UniProt Q02108+Q02153).
T1 construct: sGC enzyme activity values in HEK cells, determined by the GloSensor assay; host or cells: HEK293 cells stably expressing GloSensor 40F cGMP biosensor
T1 sequence (Q02153 1-619): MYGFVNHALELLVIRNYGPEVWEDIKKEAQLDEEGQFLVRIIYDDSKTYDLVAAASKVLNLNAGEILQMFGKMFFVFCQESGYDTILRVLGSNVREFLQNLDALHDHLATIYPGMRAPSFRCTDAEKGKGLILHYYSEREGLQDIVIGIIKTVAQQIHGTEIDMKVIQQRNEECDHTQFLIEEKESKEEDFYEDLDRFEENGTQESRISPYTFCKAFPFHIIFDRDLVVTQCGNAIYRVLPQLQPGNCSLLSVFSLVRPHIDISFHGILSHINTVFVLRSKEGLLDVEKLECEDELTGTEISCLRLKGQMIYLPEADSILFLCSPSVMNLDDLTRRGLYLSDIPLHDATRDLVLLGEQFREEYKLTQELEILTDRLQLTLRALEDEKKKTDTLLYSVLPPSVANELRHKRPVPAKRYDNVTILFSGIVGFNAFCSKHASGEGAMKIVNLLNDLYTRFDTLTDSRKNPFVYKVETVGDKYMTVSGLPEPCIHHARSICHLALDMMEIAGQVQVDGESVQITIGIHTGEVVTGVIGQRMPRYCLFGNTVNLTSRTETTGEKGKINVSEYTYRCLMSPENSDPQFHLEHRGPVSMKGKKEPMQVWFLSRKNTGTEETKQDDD
T1 sequence (Q02108 1-690): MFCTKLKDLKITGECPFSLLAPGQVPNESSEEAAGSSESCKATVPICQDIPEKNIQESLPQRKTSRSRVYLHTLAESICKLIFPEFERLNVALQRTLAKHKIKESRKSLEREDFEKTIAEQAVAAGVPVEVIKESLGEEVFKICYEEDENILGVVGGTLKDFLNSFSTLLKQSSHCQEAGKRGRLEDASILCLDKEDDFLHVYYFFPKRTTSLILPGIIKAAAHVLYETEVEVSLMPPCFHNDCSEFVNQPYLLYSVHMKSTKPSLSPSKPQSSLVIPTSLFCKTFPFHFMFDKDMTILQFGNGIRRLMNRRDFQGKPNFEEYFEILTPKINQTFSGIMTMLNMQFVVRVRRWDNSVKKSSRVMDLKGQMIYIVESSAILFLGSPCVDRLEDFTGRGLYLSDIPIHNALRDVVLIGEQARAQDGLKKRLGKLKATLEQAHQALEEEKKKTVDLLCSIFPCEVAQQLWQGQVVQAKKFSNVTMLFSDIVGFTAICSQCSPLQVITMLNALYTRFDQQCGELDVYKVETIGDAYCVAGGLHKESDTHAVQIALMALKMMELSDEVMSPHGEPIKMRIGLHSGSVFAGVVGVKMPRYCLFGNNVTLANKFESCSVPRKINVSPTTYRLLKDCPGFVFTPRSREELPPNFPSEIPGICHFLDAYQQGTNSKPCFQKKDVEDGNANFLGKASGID
The assay is described as follows: cGMP GloSensor cell-based assay, 384-well format (Example 2a). The following applies: HEK293 GloSensor 40F cGMP cells; 10 μM DETA-NONOate; 50% of high control (30 μM Compound Y); read-out: Abs EC50. An excerpt: Human embryonic kidney cells (HEK293) cells expressing GloSensor™ 40F cGMP (Part No: CS182801, Promega) were used to evaluate the activity of test compounds. The luminescent biosensors (engineered luciferase) that were incorporated into these cells detect cGMP formed by the compounds stimulating the sGC enzyme and emit luminescence.
cGMP GloSensor cells were maintained in Dulbecco's Modification of Eagle's Medium (DMEM) supplemented with fetal bovine serum (FBS, 10% final) and hygromycine (200 ug/ml). The day before assay, cells were plated in DMEM with 10% FBS in a 50 μL volume at a density of 1.5×10^4 cells/well in a poly-D-lysine coated 384-well flat white-bottom plate (Corning Cat No 35661). Cells were incubated overnight at 37° C. in a humidified chamber with 5% CO2. The next day, medium was removed and cells were replaced with 40 ul/well of GloSensor™, 2 mM (Promega Cat No E1291). Cells were treated for 90 minutes at 25° C. to allow the substrate to equilibrate in the cells. Test compounds and Diethylenetriamine NONOate (DETA-NONOate, or DETA-NO) was diluted to 3 mM (20×) in serum-free CO2 independent medium and serially diluted at 4× dilutions to create 5× dose curve from which 10 ul was added to the wells (x μM concentration for test compound solution and 10 μM concentration for DETA-NONOate solution; wherein x is one of the following final concentrations: 30000 nM, 7500 nM, 1875 nM, 468.8 nM, 117.2 nM, 29.29 nM, 7.320 nM, 1.830 nM, 0.460 nM, 0.114 nM, and 0.029 nM).
For the kinetics studies, luminescense was measured right away for 0.2 sec per well with Envision (Perkin Elmer). For endpoint SAR screening, data were collected after 55 min incubation at room temperature.
Data were normalized to a high control using the following equation: 100*(Sample−Low Control)/(High Control−Low Control), where the low control is the average of 16 samples treated with 1% DMSO, and the high control is the average of 16 samples treated with 30 μM of Compound Y depicted below. Data were fit using a 4-parameter fit (log(agonist) vs. response—variable slope) using GraphPad Prism Software v.5. n=2 for all compounds. The Absolute (Abs) EC50 was interpolated from the curve fit and is defined as the concentration at which a given compound elicits 50% of the high control response after data normalization as indicated above. Compounds failing to elicit a minimum response of 50% are reported as >30 μM or ND. For compounds run in duplicate or n higher than 2, the result herein given is the geometric mean of the several results obtained.
Turning to `Fc1ccccc1Cc1nc(-c2nc(C(F)(F)F)n[nH]2)cn2cnnc12` [Compound I-72, 8-(2-Fluorobenzyl)-6-(3-(trifluoromethyl)-1H-1,2,4-triazol-5-yl)-[1,2,4]triazolo[4,3-a]pyrazine], the half-maximal effective concentration (EC50) is greater than 1000 nM.
The figure for `Fc1ccccc1Cc1nc(-c2nc(C3CC3(F)F)n[nH]2)cn2ccnc12` (racemic) [Compound I-64, rac-6-(3-(2,2-Difluorocyclopropyl)-1H-1,2,4-triazol-5-yl)-8-(2-fluorobenzyl)imidazo[1,2-a]pyrazine] is 100 to 1000 nM; for `Fc1cc(F)cc(Cc2nc(-c3nc(C(F)(F)F)n[nH]3)cn3ncnc23)c1` [Compound I-24, 8-(3,5-Difluorobenzyl)-6-(3-(trifluoromethyl)-1H-1,2,4-triazol-5-yl)-[1,2,4]triazolo[1,5-a]pyrazine] it is no more than 100 nM; for `Cc1nc(-c2cn3ccnc3c(Cc3ccccc3F)n2)nn1CCC(F)(F)F` [Compound I-54, 8-(2-Fluorobenzyl)-6-(5-methyl-1-(3,3,3-trifluoropropyl)-1H-1,2,4-triazol-3-yl)imidazo[1,2-a]pyrazine] it is 100 to 1000 nM.
For the molecule `Nc1nc(-c2cn3ccnc3c(Cc3ccccc3F)n2)nn1CC(F)(F)F` [Compound I-59, 3-(8-(2-Fluorobenzyl)imidazo[1,2-a]pyrazin-6-yl)-1-(2,2,2-trifluoroethyl)-1H-1,2,4-triazol-5-amine], the EC50 was no more than 100 nM.
On to `CN(C)c1n[nH]c(-c2cn3ccnc3c(Cc3ccccc3F)n2)n1` [Compound I-65, 5-(8-(2-fluorobenzyl)imidazo[1,2-a]pyrazin-6-yl)-N,N-dimethyl-1H-1,2,4-triazol-3-amine], for which the EC50 fell in the range of 100 to 1000 nM.
To `Fc1cccc(Cc2nc(-c3nc(C(F)(F)F)n[nH]3)cn3ncnc23)c1` [Compound I-22, 8-(3-Fluorobenzyl)-6-(3-(trifluoromethyl)-1H-1,2,4-triazol-5-yl)-[1,2,4]triazolo[1,5-a]pyrazine] belongs no more than 100 nM.
To `Fc1ccccc1Cc1nc(-c2nc(-n3ccnc3)n[nH]2)cn2ccnc12` [Compound I-63, 6-(3-(1H-imidazol-1-yl)-1H-1,2,4-triazol-5-yl)-8-(2-fluorobenzyl)imidazo[1,2-a]pyrazine] belongs 100 to 1000 nM.
For `Fc1cccc(F)c1Cc1nc(-c2nc(C(F)F)n[nH]2)cn2ccnc12` [Compound I-20, 8-(2,6-Difluorobenzyl)-6-(3-(difluoromethyl)-1H-1,2,4-triazol-5-yl)imidazo[1,2-a]pyrazine], the EC50 is greater than 1000 nM.
The figure for `Nc1nc(-c2cn3ccnc3c(Cc3ccccc3F)n2)n(CC(F)(F)F)n1` [Compound I-60, 5-(8-(2-fluorobenzyl)imidazo[1,2-a]pyrazin-6-yl)-1-(2,2,2-trifluoroethyl)-1H-1,2,4-triazol-3-amine] is greater than 1000 nM; for `Fc1cccc(F)c1Cc1nc(-c2nc(C(F)(F)F)n[nH]2)cn2ccnc12` [Compound I-19, 8-(2,6-Difluorobenzyl)-6-(3-(trifluoromethyl)-1H-1,2,4-triazol-5-yl)imidazo[1,2-a]pyrazine] it is greater than 1000 nM; for `Cc1cc(Cn2nc(-c3cn4ccnc4c(Cc4ccccc4F)n3)nc2C)no1` [Compound I-51, 3-((3-(8-(2-Fluorobenzyl)imidazo[1,2-a]pyrazin-6-yl)-5-methyl-1H-1,2,4-triazol-1-yl)methyl)-5-methylisoxazole] it is no more than 100 nM.
For the molecule `Nc1n[nH]c(-c2cn3ccnc3c(Cc3ccccc3F)n2)n1` [Compound I-57, 5-(8-(2-Fluorobenzyl)imidazozo[1,2-a]pyrazin-6-yl)-1H-1,2,4-triazol-3-amine], the EC50 lay within 100 to 1000 nM.
To `Cc1c(F)cc(Cc2nc(-c3nc(C(F)(F)F)n[nH]3)cn3ccnc23)cc1F` [Compound I-34, 8-(3,5-Difluoro-4-methylbenzyl)-6-(3-(trifluoromethyl)-1H-1,2,4-triazol-5-yl)imidazo[1,2-a]pyrazine] belongs no more than 100 nM.
The figure for `Fc1ccccc1Cc1nc(-c2nc(C(F)(F)F)n[nH]2)cn2c(I)cnc12` [Compound I-66, 8-(2-Fluorobenzyl)-3-iodo-6-(3-(trifluoromethyl)-1H-1,2,4-triazol-5-yl)imidazo[1,2-a]pyrazine] is 100 to 1000 nM; for `Cc1cn2cc(-c3nc(C(F)F)n[nH]3)nc(Cc3ccccc3F)c2n1` [Compound I-32, 6-(3-(Difluoromethyl)-1H-1,2,4-triazol-5-yl)-8-(2-fluorobenzyl)-2-methylimidazo[1,2-a]pyrazine] it is greater than 1000 nM; for `Fc1ccc(F)c(Cc2nc(-c3nc(C(F)F)n[nH]3)cn3ncnc23)c1` [Compound I-23, 8-(2,5-Difluorobenzyl)-6-(3-(difluoromethyl)-1H-1,2,4-triazol-5-yl)-[1,2,4]triazolo[1,5-a]pyrazine] it is no more than 100 nM.
Turning to `Cn1cnc2c(Cc3ccccc3F)nc(-c3nc(C(F)(F)F)n[nH]3)cc21` [Compound I-36, 4-(2-Fluorobenzyl)-1-methyl-6-(3-(trifluoromethyl)-1H-1,2,4-triazol-5-yl)-1H-imidazo[4,5-c]pyridine], the EC50 was greater than 1000 nM.
To `N#Cc1cnc2c(Cc3ccccc3F)nc(-c3nc(C(F)(F)F)n[nH]3)cn12` [Compound I-70, 8-(2-Fluorobenzyl)-6-(3-(trifluoromethyl)-1H-1,2,4-triazol-5-yl)imidazo[1,2-a]pyrazine-3-carbonitrile] belongs 100 to 1000 nM; to `Cc1n[nH]c(-c2cn3ccnc3c(Cc3ccccc3F)n2)n1` [Compound I-4, 8-(2-fluorobenzyl)-6-(3-methyl-1H-1,2,4-triazol-5-yl)imidazo[1,2-a]pyrazine], 100 to 1000 nM.
The figure for `Fc1ccccc1Cc1nc(-c2nc(C(F)(F)F)n[nH]2)cn2c(Cl)cnc12` [Compound I-67, 3-Chloro-8-(2-fluorobenzyl)-6-(3-(trifluoromethyl)-1H-1,2,4-triazol-5-yl)imidazo[1,2-a]pyrazine] is no more than 100 nM.
